The record followed here is ChEMBL document CHEMBL1201862, “PubChem BioAssay data set” (2004).

Each structure is given as a SMILES string.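 Following 48 hours of exposure in 96-well plates, responses at five concentrations were used to interpolate endpoints linearly. GI50 is the concentration that inhibits growth by half.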 Calls of active or inactive are those of the source. Cut-off read from the data, not from the text of the source: active = GI50 up to about 1.1 µM and inactive = higher.

Among the test systems are A549; OVCAR-5; M14; NCI-H23; SNB-75; SR; IGROV-1; OVCAR-4; SK-OV-3; LOX IMVI; UACC-62; ACHN; 786-0; KM12; MDA-MB-231; T47D; DU-145; MCF7.
Common to all, as to assay: NCI-60 cell line screen, 48 h

On to `COc1ccc(CC2NCCc3cc(OC)c(OC)cc32)cc1` (stereo unspecified), for which the GI50 in the test on A549, with OVCAR-5, in the test on M14, in the test with NCI-H23, with SNB-75 and in the test with SR was > 100 µM (inactive) each time. For the same compound, the GI50 with IGROV-1, in the test with OVCAR-4, in the test with SK-OV-3, in the test on LOX IMVI, in the test with UACC-62 and with ACHN was > 100 µM (inactive) in each case. In addition, the GI50 with 786-0 and in the test with KM12 was > 100 µM (inactive) in each case.

In the case of `CCCCCCCCCCCCCC(=O)O[C@H]1CC[C@H](NC(=O)[C@H](OC)[C@H](O)[C@@H](O)[C@H](O)/C=C/C(C)C)C(=O)N(C)C1` [BENGAMIDE B], the GI50 in the test on A549 is < 0.0015 µM (active); in the test with OVCAR-5 it was 4.65 µM (inactive); in the test on M14, 0.0128 µM (active); with NCI-H23, 0.00977 µM (active); with SNB-75 it was 0.105 µM (active); with SR, 0.0021 µM (active). Also, the GI50 in the test with IGROV-1 is 0.00235 µM (active); in the test with OVCAR-4, 0.014 µM (active); with SK-OV-3, 0.0721 µM (active); in the test with LOX IMVI, 0.00216 µM (active); with UACC-62, 0.00807 µM (active); with ACHN it was 0.00261 µM (active). Besides, the GI50 with 786-0 was 0.00457 µM (active); in the test with KM12, 0.00418 µM (active).

On to `N#CCCN(c1ccc(/C=N/c2ccccc2Cl)cc1)S(=O)(=O)c1ccccc1`, for which the GI50 in the test with A549, with OVCAR-5, in the test with M14, in the test with NCI-H23, in the test on SNB-75 and with SR was > 100 µM (inactive) in each case. The GI50 in the test on IGROV-1, in the test on OVCAR-4, in the test with SK-OV-3, in the test on LOX IMVI, in the test on UACC-62 and in the test on ACHN was > 100 µM (inactive) in each case. Further, the GI50 with 786-0 and in the test with KM12 was > 100 µM (inactive) in each case.

As to `Nc1nc2sc3ccccc3c(=O)n2n1`, the GI50 in the test with A549, in the test on OVCAR-5, in the test with M14, in the test with NCI-H23, in the test on SNB-75 and in the test with SR was > 100 µM (inactive) throughout. Moreover, the GI50 in the test with IGROV-1, with OVCAR-4, in the test with SK-OV-3, in the test with LOX IMVI, in the test on UACC-62 and in the test on ACHN was > 100 µM (inactive) each time. The GI50 in the test on 786-0 and with KM12 was > 100 µM (inactive) throughout.

As to `N#CC(Sc1ccccc1)C(N)=O` (stereo unspecified), the GI50 with A549, in the test on OVCAR-5, in the test on M14, with NCI-H23, in the test with SNB-75 and in the test on SR was > 100 µM (inactive) each time. Further, the GI50 in the test on IGROV-1, with OVCAR-4, in the test on SK-OV-3, in the test on LOX IMVI, in the test on UACC-62 and in the test with 786-0 was > 100 µM (inactive) in each case. For the same compound, in the test on KM12, the GI50 was > 100 µM (inactive).

As for `O=C(NOC(=O)c1ccc([N+](=O)[O-])cc1)c1ccc(Cl)cc1`, the GI50 was > 100 µM (inactive) with A549; > 100 µM (inactive) in the test on OVCAR-5; > 100 µM (inactive) in the test with M14; > 100 µM (inactive) with NCI-H23; 15 µM (inactive) with SNB-75; > 100 µM (inactive) with SR. In addition, the GI50 with IGROV-1 was 21.4 µM (inactive); in the test with OVCAR-4, 88.9 µM (inactive); in the test on SK-OV-3, > 100 µM (inactive); in the test with LOX IMVI, 6.87 µM (inactive); in the test on UACC-62, 36.2 µM (inactive); with ACHN, 37.6 µM (inactive). The GI50 in the test with 786-0 was 54.6 µM (inactive); in the test with KM12, > 100 µM (inactive).

As to `Cc1ccc(C(C2C(=O)N(C)C(=O)N(C)C2=O)C(F)(F)C(=O)N(C)C)cc1` (stereo unspecified), the GI50 with A549, in the test on MDA-MB-231, in the test on OVCAR-5, in the test with M14, in the test with NCI-H23 and with SNB-75 was > 100 µM (inactive) each time. Further, the GI50 in the test on T47D, in the test on DU-145, in the test on MCF7, in the test with OVCAR-4, in the test on SK-OV-3 and in the test with LOX IMVI was > 100 µM (inactive) each time. In addition, the GI50 in the test on UACC-62, in the test with ACHN, in the test on 786-0 and in the test with KM12 was > 100 µM (inactive) each time.

Regarding `CC1(C)C(=O)N(O)C(C)(C)N1N=O`, the GI50 in the test on A549, in the test on MDA-MB-231, in the test on OVCAR-5, in the test on M14, with NCI-H23 and in the test on SR was > 10 µM (inactive) throughout. Also, the GI50 in the test with T47D, in the test with DU-145, in the test with MCF7, in the test on OVCAR-4, with ACHN and with 786-0 was > 10 µM (inactive) throughout. In addition, the GI50 in the test with KM12 is > 10 µM (inactive).

`Clc1ccc(-c2c(C3=NCCN3)nnn2-c2ccc(Cl)cc2)cc1`: the GI50 is 53.2 µM (inactive) in the test with A549; 33 µM (inactive) in the test with OVCAR-5; 17.1 µM (inactive) in the test with M14; 35.2 µM (inactive) in the test on NCI-H23; 17.8 µM (inactive) in the test on SNB-75; 13.4 µM (inactive) in the test on SR. Moreover, the GI50 in the test on IGROV-1 is 56 µM (inactive); with OVCAR-4, 47.4 µM (inactive); with SK-OV-3, 29.6 µM (inactive); with LOX IMVI, 39.4 µM (inactive); with UACC-62, 18.1 µM (inactive); in the test on ACHN, 39.7 µM (inactive). Also, the GI50 was 21.8 µM (inactive) with 786-0 and 19.8 µM (inactive) in the test with KM12.

For the compound `CCN(CC)C(=O)c1cccc2c(OC)ccc(OC)c12`, the GI50 with A549, in the test with OVCAR-5, with M14, with NCI-H23, in the test on SNB-75 and in the test with SR was > 100 µM (inactive) throughout. Also, the GI50 with IGROV-1, in the test on OVCAR-4, with SK-OV-3, in the test on LOX IMVI, in the test on UACC-62 and with ACHN was > 100 µM (inactive) in each case. The GI50 in the test with 786-0 and in the test with KM12 was > 100 µM (inactive) in each case.

As to `Cc1c2nc3ccccc3sc-2cc(=O)c1C`, the GI50 with A549 is 48.8 µM (inactive); with OVCAR-5, > 95.5 µM (inactive); in the test on M14, 55.3 µM (inactive); in the test with NCI-H23, 10.3 µM (inactive); in the test with SNB-75, 52.6 µM (inactive); in the test with SR it was > 10 µM (inactive). For the same compound, the GI50 is > 56.2 µM (inactive) in the test on IGROV-1; 65.3 µM (inactive) in the test on OVCAR-4; > 100 µM (inactive) in the test on SK-OV-3; 29.8 µM (inactive) in the test with LOX IMVI; 15.5 µM (inactive) in the test with UACC-62; 48.9 µM (inactive) with ACHN. Besides, the GI50 is > 100 µM (inactive) with 786-0 and 76.6 µM (inactive) in the test on KM12.

As for `CCN(CC)CCOc1ccc(C(O)(Cc2ccc(OC)cc2)c2ccccc2)cc1` (stereo unspecified), the GI50 is 21.8 µM (inactive) in the test on A549; 20 µM (inactive) in the test on OVCAR-5; 14.3 µM (inactive) with M14; 17 µM (inactive) in the test with NCI-H23; 12.6 µM (inactive) in the test with SNB-75; 10.7 µM (inactive) in the test with SR. In addition, the GI50 in the test with IGROV-1 was 32.6 µM (inactive); in the test on OVCAR-4, 16.1 µM (inactive); with SK-OV-3, 23.6 µM (inactive); in the test on LOX IMVI, 14.3 µM (inactive); in the test on UACC-62, 16.7 µM (inactive); with ACHN it was 27.5 µM (inactive). For the same compound, the GI50 in the test with 786-0 and in the test on KM12 was 17.3 µM (inactive) throughout.

With `CCOC(=O)NC1C2CC(=O)OC(O2)C1OC(C)=O` (stereo unspecified), the GI50 with A549, with OVCAR-5, with M14, in the test on NCI-H23, with SNB-75 and in the test with SR was > 100 µM (inactive) throughout. In addition, the GI50 with IGROV-1 was 59.7 µM (inactive); in the test on OVCAR-4, > 100 µM (inactive); with SK-OV-3 it was > 100 µM (inactive); with LOX IMVI, > 100 µM (inactive); with UACC-62, > 100 µM (inactive); in the test on ACHN it was > 100 µM (inactive). In addition, the GI50 in the test with 786-0 and in the test on KM12 was > 100 µM (inactive) throughout.

With `O=C(O)/C=C/c1ccc(O)c(O)c1` [CAFFEIC ACID], the GI50 in the test on A549 is > 100 µM (inactive); in the test with OVCAR-5 it was > 100 µM (inactive); in the test with M14 it was > 100 µM (inactive); in the test with NCI-H23 it was > 100 µM (inactive); with SNB-75, > 24 µM (inactive); in the test with DU-145, > 100 µM (inactive). Besides, the GI50 in the test with IGROV-1, with OVCAR-4, with SK-OV-3, with LOX IMVI, with UACC-62 and with ACHN was > 100 µM (inactive) in each case. For the same compound, the GI50 with 786-0 and with KM12 was > 100 µM (inactive) in each case.
